Reference: PubChem BioAssay (NCI)
“And” between values parts separate entries of the source, which are not always exact repeats. Equal entries are not always repeated.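 Each compound was tested at five concentrations against cells in 96-well plates for 48 hours. GI50 = concentration required for 50% inhibition of growth. The concentration for full growth arrest is given as TGI.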

How the values were obtained:
Assay in all cases: inhibition of tumour cell growth, NCI panel, 48 h
ACHN renal = tested on: ACHN renal
HL-60(TB) leukemia = tested on: HL-60(TB) leukemia
MDA-MB-231 breast = tested on: MDA-MB-231 breast
NCI-H460 lung = tested on: NCI-H460 lung
OVCAR-4 ovarian = tested on: OVCAR-4 ovarian
RXF 393 renal = tested on: RXF 393 renal
SK-MEL-2 melanoma = tested on: SK-MEL-2 melanoma
UACC-257 melanoma = tested on: UACC-257 melanoma

SMILES	GI50 (ACHN renal)	TGI (ACHN renal) [µM]	GI50 (HL-60(TB) leukemia)	TGI (HL-60(TB) leukemia)	GI50 (MDA-MB-231 breast)	TGI (MDA-MB-231 breast)	GI50 (NCI-H460 lung)	TGI (NCI-H460 lung)	GI50 (OVCAR-4 ovarian) [µM]	TGI (OVCAR-4 ovarian) [µM]	GI50 (RXF 393 renal)	TGI (RXF 393 renal)	GI50 (SK-MEL-2 melanoma)	TGI (SK-MEL-2 melanoma)	GI50 (UACC-257 melanoma)	TGI (UACC-257 melanoma)
O=C(NCCCO)c1cc(Cl)ccc1O	3.73 µM	13.2	2.22 µM	6.35 µM	3.64 µM	12.8 µM	2.78 µM	11.1 µM	2.54	12.4	3.94 µM	12.9 µM	2.82 µM	6.54 µM	2.23 µM	7.54 µM
COc1ccc2ccccc2c1C1NC(=O)c2ccccc2N1 (configuration not stated)		> 84.5		0.877 µM		> 41.8 µM		29.6 µM				> 23.6 µM		> 100 µM		> 100 µM
Oc1ccc(-c2nc3ccccc3s2)cc1CN(Cc1ccccn1)Cc1ccccn1	0.0991 µM	3.91	2.14 µM	13.3 µM	1.3 µM	13.7 µM	0.228 µM	10.5 µM	0.787	12.8	1.64 µM	9.96 µM	2.5 µM	9.69 µM	3.1 µM	13 µM
Cc1nnc(-c2cccc(-c3ccc(C(=O)NCC4CC4)cc3)c2)o1	> 25 µM	> 25	> 25 µM	> 25 µM	> 25 µM	> 25 µM	> 25 µM	> 25 µM	> 25	> 25	> 25 µM	> 25 µM	> 25 µM	> 25 µM	> 25 µM	> 25 µM
CC(C)=CCC/C(C)=C/CC/C(C)=C/CSc1ccccc1C(=O)O		> 100	18.6 µM	41.4 µM and 67.1 µM	28.3 µM	61.7 µM and 55.8 µM	20.9 µM	42 µM and 33.1 µM	31.5	> 100	22.2 µM	52.3 µM and 56 µM	22.6 µM	45.4 µM and 29.4 µM	30.5 µM	> 100 µM
COc1cc(-c2cc(O)c(-c3ccc4ccccc4n3)c(=O)[nH]2)cc(OC)c1OC		> 89.8		35.3 µM		> 70.2 µM		> 80.6 µM		> 53.6		> 82.8 µM		> 78.9 µM		> 100 µM
C[As](C)SCC(COC(=O)C(Cl)c1ccccc1)OC(=O)C(Cl)c1ccccc1 (configuration not stated)	1.36 µM	11.4	0.418 µM		1.53 µM	4.95 µM	9.03 µM	33.6 µM	4.38	18	0.641 µM	15 µM			0.332 µM	12.6 µM
Oc1ccc(C(c2ccc(O)cc2)c2ccc(O)cc2)cc1		90.8		41.5 µM		41.8 µM		46.3 µM		29.1		39.5 µM		55 µM		52.4 µM
COC(=O)c1cc(O)c2cc3c(cc2c1-c1cc(OC)c(OC)c(OC)c1)OCO3	2.59 µM	> 100			1.5 µM	> 100 µM	0.686 µM	> 100 µM	> 100	> 100	2.95 µM	> 100 µM	0.4 µM	6.21 µM	1.8 µM	> 100 µM
Nc1c(C(=O)Nc2cccc(F)c2)sc2nc3c(cc12)C(=O)CCC3	0.842 µM	> 100	0.322 µM	> 100 µM	1.67 µM	> 75.2 µM	0.356 µM	> 100 µM	> 55.1	> 100	0.248 µM		0.492 µM	> 81.6 µM		
Cn1cnc([N+](=O)[O-])c1Sc1nc(N)nc2c1ncn2C1CC(O)C(CO)O1 (configuration not stated)		> 92.8		> 47.1 µM		> 100 µM		> 40 µM		> 83.1		> 100 µM		25.7 µM		> 100 µM
Cn1c2c(c3ccc([N+](=O)[O-])cc3c1=O)C(=O)c1ccccc1-2	> 100 µM	> 100	> 100 µM	> 100 µM	> 100 µM	> 100 µM	> 100 µM	> 100 µM	> 100	> 100			> 100 µM	> 100 µM	> 100 µM	> 100 µM
CC(=O)OC(C)(C)/C(C)=C/C(=O)O[C@H]1C(=O)O[C@@H]2C[C@H]3[C@H](C)C(=O)C(O[C@@H]4O[C@H](CO)[C@@H](O)[C@H](O)[C@H]4O)=C[C@]3(C)[C@H]3[C@@H](O)[C@H](O)[C@@]4(C(=O)O)OC[C@]32[C@@H]14	> 100 µM	> 100	48.2 µM	> 100 µM	> 100 µM	> 100 µM	39.5 µM	> 100 µM	> 100	> 100	37.3 µM	> 100 µM	> 100 µM	> 100 µM	> 100 µM	> 100 µM
Cc1csc(/C=C/C(=O)c2nnn(-c3ccnc4c(C(F)(F)F)cccc34)c2C)c1	> 100 µM	> 100	29.7 µM	> 100 µM	29.2 µM	> 100 µM	43.5 µM	> 100 µM			> 100 µM	> 100 µM	> 100 µM	> 100 µM	13.7 µM	60.9 µM
CCC(=C/[C@H](C)C/C=C/C(C)=C/[C@@H](C)C(=O)[C@@H](C)[C@H](O)[C@@H](C)CC)/C=C/[C@@H]1OC(=O)C=C[C@H]1C	< 0.01 µM	1.11	< 0.01 µM	< 0.01 µM	< 0.01 µM	1.77 µM			< 0.01	1.5	< 0.01 µM	< 0.01 µM	< 0.01 µM	< 0.01 µM	< 0.01 µM	
O=Nc1ccc(NO)c2ccccc12	12.6 µM	25.9	3.14 µM	7.56 µM	10.3 µM	47.5 µM	21.7 µM	51.3 µM	3.33	16.2	11.8 µM	24.2 µM	18.3 µM	34.4 µM	2.31 µM	5.39 µM
Cc1nc(-c2cn3c(n2)-c2ccc(-c4cnn(C(C)(C)C(N)=O)c4)cc2OCC3)n(C(C)C)n1	0.647 µM and 1.33 µM	> 100	< 0.0202 µM and 0.00955 µM	25.8 µM and > 10 µM	6.44 µM and 4.11 µM	35.9 µM and > 10 µM	0.111 µM and 0.169 µM	> 100 µM		> 10	0.537 µM and 0.727 µM	4.61 µM and > 7.26 µM	4.25 µM and 4.74 µM	24.2 µM and > 10 µM	0.297 µM and 0.733 µM	26.1 µM and > 10 µM
